Measurements published in PMC10666548, “Identification of the bacterial metabolite aerugine as potential trigger of human dopaminergic neurodegeneration” (Environment international, 2023).
Entries after “also recorded” stand apart in the source; their conditions may differ.

Legend:
LUHMES neurons [1] = experiment: LDH-release and resazurin reduction tests on d6 LUHMES; type: cell-based, human; details: 24 h
Method: The assay was performed as described earlier ([Latta et al., 2000]). In brief, supernatants were transferred to an un-coated 96-wellplate and cells were lysed in 110 μl of phosphate buffered saline (PBS) with 0.1% Triton-X100 for 1 h at room temperature. Lactate dehydrogenase (LDH) activity was assessed in the supernatant and the cell lysate individually by combining 10 μl sample with 100 μl potassium phosphate buffer pH 7.5 containing 640 μM pyruvate and […] NADH. NADH was quantified by measuring the absorption at 340 nm over 15 min and its decline was proportional to the LDH content. LDH release was calculated as the ratio of LDHsupernatant/LDHsupernatant+lysate.
The assay was performed as described previously ([Schildknecht et al., 2009]). In brief, cells were stained with 10 μg/ml resazurin and incubated for 30 min at 37 °C and 5% CO2. The fluorescence of resazurin was detected with an excitation wavelength of 530 nm, using a 590 nm long-pass filter to record the emission. […]
Supplementary Figure S7: Viability endpoints measured on d6 LUHMES treated with aerugine Cultures of differentiated LUHMES neurons were exposed on d6 to serial dilutions of aerugine for 24 h. The cell viability (V), neurite area (NA) were assessed 24 h later by calcein-AM & H-33342 staining and high content imaging. Resazurin reduction and LDH release were measured subsequently. […]

LUHMES neurons [2] = experiment: Time course of cell death in d6 LUHMES (phase contrast, TMRE, H-33342, propidium iodide); type: cell-based, human; details: 10 μM
Method: Cells were stained either with 50 nM tetramethylrhodamine ethyl ester (TMRE) or 1.5 μM propidium iodide (PI) for at least 30 min at 37 °C and 5% CO2 ([Brüll et al., 2020]; [Krug et al., 2014]). Fluorescent imaging was performed (AxioObserver, Zeiss, Germany) with excitation/emission wavelengths of 575 ± 25/640 ± 35 nm.
To obtain additional information on the death process triggered by aerugine, we also examined earlier time points after exposure to a fixed concentration of 10 μM. Semi-quantitative information was obtained from phase contrast images, by staining of energized mitochondria with the potential-sensitive dye tetramethylrhodamine ethyl ester (TMRE) and by visualization of the chromatin structure with the […] dye H-33342. […] While the neurite structure was well-preserved, some of the cell bodies flattened in a way that the nucleus became visible in phase contrast. The normally round/dome-like cells took a flattened “fried egg” structure. In parallel, the DNA condensed and fragmented into small, round and highly-fluorescent spheres, a typical hallmark of apoptosis. Cells with apoptotic nuclei had lost their TMRE stain. At 8 h, more cell bodies looked flattened (“unhealthy”) and the neurites were thinning. […] This sequence of events is typical of neuronal apoptosis, e.g. under mild excitotoxic conditions, or after exposure to proteasome inhibitors or cytoskeletal poisons ([Gutbier et al., 2018b]; [Leist et al., 1997]; [Volbracht et al., 2001]; [Volbracht et al., 1999]). The overall kinetics of cell death was rather fast, compared to many other toxicants. […] To obtain a more quantitative confirmation of the rapid process, cells were stained with calcein-acetoxymethyl ester and propidium iodide (PI) and observed over time. The staining of nuclei (indication of plasma membrane permeability) by PI was quantified by an imaging algorithm. By 6 h, dead cells increased by 17 ± 6%, by 8 h by 25 ± 5%, and by 10 h, > 95% of the cell nuclei were positive. This confirms the fast cell death process triggered by aerugine (10 μM) in neurons.

[3] = test system: dopaminergic system of C. elegans BY200; experiment: Basal slowing response (BSR) behavioral assay; type: in vivo, Caenorhabditis elegans; details: L4 BY200 worms treated 2 days
Method: The basal slowing response (BSR) is a behavioral assay that assesses the functionality of the worms’ DAergic system. For this, worms were washed three times with S-basal buffer (100 mM NaCl, 5 mg/L cholesterol, 50 mM potassium phosphate buffer, pH 6.0) to remove residual bacteria, and placed on the center of a 60-mm NGM plates in the absence or presence of an OP50 bacteria ring. After habituation (5 min), the number of body bends of each worm was counted during 20 s to determine its immobility rate. The results were expressed as the difference (Δ) between the number of body bends in the absence (a) and presence (p) of bacteria on fresh plates (Δ = a-p). […]
Fig. 5. […] They were exposed to different aerugine concentrations and counted every 24 h. […] Differences on a given day were analyzed by ANOVA and found to be non-significant. […] The GFP-labelled neurons of 20–30 worms per condition were analyzed and scored for specific neurodegeneration. […] These scores were assessed to quantify the dopaminergic neurodegeneration caused be aerugine in vivo. C Worms with wild type morphology (score 0) were counted. […] D The degeneration scores exemplified in B were quantified. […] E The “basal slowing response” was assessed as proxy for the functionality of the worms’ dopaminergic system. It was measured in L4 larval stage BY200 worms treated for 2 days with aerugine. […]

SMILES: OCC1CSC(c2ccccc2O)=N1 (centres unmarked) [aerugine, 2-[4-(hydroxymethyl)-4,5-dihydro-1,3-thiazol-2-yl]phenol]
- LDH-release and resazurin reduction viability (LUHMES neurons [1]): confirmed the single cell data, although with slightly less sensitivity
- morphology (phase contrast, TMRE, H-33342) (LUHMES neurons [2]; 6 h exposure): clear morphological changes became obvious
- mitochondrial membrane potential in intact neurites (TMRE) (LUHMES neurons [2]; 8 h): the mitochondrial membrane potential was lost
- morphology (neurites, nuclei) (LUHMES neurons [2]; 10 h): the majority of neurites was lost
- increase of dead cells (PI-stained nuclei) (LUHMES neurons [2]; by 6 h): 17 ± 6%
- increase of dead cells (PI-stained nuclei) (LUHMES neurons [2]; by 8 h): 25 ± 5%
- PI-positive cell nuclei (LUHMES neurons [2]; by 10 h): > 95%
- basal slowing response (BSR) [3]: attenuated; also recorded: exerted functional dopaminergic toxicity
